The record followed here is patent publication US20210214375A1 (LUNDBECK LA JOLLA RESEARCH CENTER, INC., priority 2017, published 2021).

One test has as its target T1, ABHD6 (Mus musculus, UniProt Q8R2Y0).
T1 construct: Brain; from tissue; host or cells: mouse brain proteome
T1 sequence (Q8R2Y0 1-336): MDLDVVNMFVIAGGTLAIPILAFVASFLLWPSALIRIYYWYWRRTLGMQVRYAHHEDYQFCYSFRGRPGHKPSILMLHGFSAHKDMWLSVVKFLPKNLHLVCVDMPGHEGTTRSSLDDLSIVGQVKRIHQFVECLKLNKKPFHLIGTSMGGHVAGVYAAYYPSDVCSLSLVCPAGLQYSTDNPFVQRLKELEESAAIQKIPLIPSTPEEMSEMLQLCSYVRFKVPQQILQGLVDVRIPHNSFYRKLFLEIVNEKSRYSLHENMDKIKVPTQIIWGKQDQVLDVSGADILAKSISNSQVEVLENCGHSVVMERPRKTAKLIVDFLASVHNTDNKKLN
Description: In vitro competitive activity-based protein profiling, mouse brain proteome, ABHD6. The class given is biochemical. The note with it: for IC50: mouse. Here is the method:
[Worded in the source for another target; this target is reported under the same test.] (§1) Proteomes (human prefrontal cortex or cell membrane fractions) (50 μL, 1.0 mg/mL total protein concentration) were preincubated with varying concentrations of inhibitors at 37° C. After 30 min, FP—Rh or HT-01 (1.0 μL, 50 μM in DMSO) was added and the mixture was incubated for another 30 min at room temperature. Reactions were quenched with SDS loading buffer (15 μL-4×) and run on SDS-PAGE.

For the next test, the target named is T2, MGLL (Mus musculus, UniProt O35678).
T2 construct: Brain; from tissue; host or cells: mouse brain proteome
T2 sequence (O35678 1-303): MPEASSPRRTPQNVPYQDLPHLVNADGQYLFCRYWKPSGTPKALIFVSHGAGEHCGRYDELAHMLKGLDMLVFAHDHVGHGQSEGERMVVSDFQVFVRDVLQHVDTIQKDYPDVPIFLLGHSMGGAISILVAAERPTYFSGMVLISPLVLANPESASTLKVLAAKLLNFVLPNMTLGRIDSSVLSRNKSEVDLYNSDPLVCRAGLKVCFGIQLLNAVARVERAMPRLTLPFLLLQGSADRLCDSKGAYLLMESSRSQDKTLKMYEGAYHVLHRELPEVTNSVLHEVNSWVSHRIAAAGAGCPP
In words: In vitro competitive activity-based protein profiling, mouse brain proteome. It counts as biochemical. The protocol:
[Worded in the source for another species; this species is reported under the same test.] as §1

The term IC50 denotes the point on the concentration scale where inhibition reaches its midpoint. The low end stands for greater potency in that assay, the high end for weaker potency in that assay. For `O=C(OC(C(F)(F)F)C(F)(F)F)N1CCC2(CC1)CN(Cc1ccc(Cl)cc1N1CCCCC1)C2` [Example 38, 1,1,1,3,3,3-Hexafluoropropan-2-yl 2-(4-chloro-2-(piperidin-1-yl)benzyl)-2,7-diazaspiro[3.5]nonane-7-carboxylate], the IC50 at ABHD6 and on MGLL was 100 to 1000 nM each time.

With `O=C(OC(C(F)(F)F)C(F)(F)F)N1CC2(CCN(Cc3ccc(C(F)(F)F)cc3N3CCOCC3)CC2)C1` [Example 40, 1,1,1,3,3,3-Hexafluoropropan-2-yl 7-(2-morpholino-4-(trifluoromethyl)benzyl)-2,7-diazaspiro[3.5]nonane-2-carboxylate], the IC50 at ABHD6 and on MGLL was under 100 nM in each case.

Turning to `O=C(OC(C(F)(F)F)C(F)(F)F)N1CCC2(CC1)CN(Cc1c(Cl)cccc1N1CCCC1)C2` [Example 42, 1,1,1,3,3,3-Hexafluoropropan-2-yl 2-(2-chloro-6-(pyrrolidin-1-yl)benzyl)-2,7-diazaspiro[3.5]nonane-7-carboxylate], the IC50 at ABHD6 was 100 to 1000 nM; on MGLL, under 100 nM.

As to `O=C(OC(C(F)(F)F)C(F)(F)F)N1CCC2(CC1)CN(Cc1c(N3CCOCC3)cccc1C(F)(F)F)C2` [Example 43, 1,1,1,3,3,3-Hexafluoropropan-2-yl 2-(2-morpholino-6-(trifluoromethyl)benzyl)-2,7-diazaspiro[3.5]nonane-7-carboxylate], the figures for the half-maximal inhibitory concentration (IC50) at ABHD6 and at MGLL were 100 to 1000 nM and under 100 nM, respectively.

For `O=C(OC(C(F)(F)F)C(F)(F)F)N1CCC2(CC1)CN(Cc1c(Cl)cccc1N1CCC(F)CC1)C2` [Example 47, 1,1,1,3,3,3-Hexafluoropropan-2-yl 2-(2-chloro-6-(4-fluoropiperidin-1-yl)benzyl)-2,7-diazaspiro[3.5]nonane-7-carboxylate], the IC50 at ABHD6 and on MGLL was under 100 nM each time.

Turning to `O=C(OC(C(F)(F)F)C(F)(F)F)N1CCC2(CC1)CN(Cc1c(Cl)cccc1N1CCC3(CCOCC3)C1)C2` [Example 48, 1,1,1,3,3,3-Hexafluoropropan-2-yl 2-(2-chloro-6-(8-oxa-2-azaspiro[4.5]decan-2-yl)benzyl)-2,7-diazaspiro[3.5]nonane-7-carboxylate], the IC50 at ABHD6 and at MGLL was under 100 nM in each case.

`O=C(O)C1CCN(c2ccc(CN3CCC4(CC3)CN(C(=O)OC(C(F)(F)F)C(F)(F)F)C4)cc2)CC1` [Example 66, 1-(4-((2-(((1,1,1,3,3,3-Hexafluoropropan-2-yl)oxy)carbonyl)-2,7-diazaspiro[3.5]nonan-7-yl)methyl)phenyl) piperidine-4-carboxylic acid]: on ABHD6 (mouse brain proteome), the “% Inh ABHD6 Brain (Mouse, μM)” value is reported as “### (### is ≥ 75%)”. At MGLL, the “% Inh MGLL Brain (Mouse, μM)” value is “## (## is between 25 and 75%)”.

Take `O=C(OC(C(F)(F)F)C(F)(F)F)N1CCC2(CC1)CN(Cc1ccc(Cl)c(Cl)c1)C2` [Example 67, 1,1,1,3,3,3-Hexafluoropropan-2-yl 2-(3,4-dichlorobenzyl)-2,7-diazaspiro[3.5]nonane-7-carboxylate]: the IC50 at ABHD6 and at MGLL was under 100 nM throughout.

For the compound `O=C(OC(C(F)(F)F)C(F)(F)F)N1CCC2(CC1)CN(Cc1cccc(Oc3ccccc3)c1)C2` [Example 78, 1,1,1,3,3,3-Hexafluoropropan-2-yl 2-(3-phenoxybenzyl)-2,7-diazaspiro[3.5]nonane-7-carboxylate], the IC50 on ABHD6 and on MGLL was under 100 nM throughout.

`O=C(OC(C(F)(F)F)C(F)(F)F)N1CCC2(CC1)CN(Cc1ccc(N3CCCC3)cc1)C2` [Example 80, 1,1,1,3,3,3-Hexafluoropropan-2-yl 2-(4-(pyrrolidin-1-yl)benzyl)-2,7-diazaspiro[3.5]nonane-7-carboxylate]: the IC50 at ABHD6 is over 1000 nM; at MGLL it was under 100 nM.

For `O=C(OC(C(F)(F)F)C(F)(F)F)N1CCC2(CCCN2C(=O)c2ccc(C(F)(F)F)cc2)CC1` [Example 83, 1,1,1,3,3,3-Hexafluoropropan-2-yl 1-(4-(trifluoromethyl)benzoyl)-1,8-diazaspiro[4.5]decane-8-carboxylate], the IC50 is 100 to 1000 nM at ABHD6 and under 100 nM on MGLL.
